# Measured values: ChEMBL document CHEMBL5154868, “Novel Selective Galectin-3 Antagonists Are Cytotoxic to Acute Lymphoblastic Leukemia” (J Med Chem, 2022)
# Experiments:
# [1] = molecular target: T1, Galectin-4 (Homo sapiens, UniProt P56470); assay: Binding affinity to human galectin-4N expressed in Escherichia coli BL21 using 3,3'-dideoxy-3-[4-(fluorescein-5-yl-carbonylaminomethyl)-1H-1,2,3-triazol-1-y1]-3'-(3,5-dimethoxy-benzamido)-1,1'-sulfanediyl-di-beta-D-galactopyranoside as fluorescent probe by fluorescence polarization analysis
# T1 sequence (P56470 whole entry): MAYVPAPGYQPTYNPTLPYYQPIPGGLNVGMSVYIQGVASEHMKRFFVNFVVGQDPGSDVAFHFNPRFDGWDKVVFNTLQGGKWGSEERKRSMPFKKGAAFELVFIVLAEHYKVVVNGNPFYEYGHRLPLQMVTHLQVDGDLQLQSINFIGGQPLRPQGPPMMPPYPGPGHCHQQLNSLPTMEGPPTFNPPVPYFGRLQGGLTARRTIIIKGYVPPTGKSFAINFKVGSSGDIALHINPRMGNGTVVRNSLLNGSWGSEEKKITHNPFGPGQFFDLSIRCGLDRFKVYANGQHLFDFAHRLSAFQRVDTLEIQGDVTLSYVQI
# [2] = molecular target: T1, Galectin-4
# [3] = molecular target: T2, Galectin-8 (Homo sapiens) (UniProt O00214); assay: Antagonist activity against human galectin-8N assessed as inhibition of galectin-8N at 2 mM by fluorescence polarization analysis relative to control
# T2 sequence (whole entry): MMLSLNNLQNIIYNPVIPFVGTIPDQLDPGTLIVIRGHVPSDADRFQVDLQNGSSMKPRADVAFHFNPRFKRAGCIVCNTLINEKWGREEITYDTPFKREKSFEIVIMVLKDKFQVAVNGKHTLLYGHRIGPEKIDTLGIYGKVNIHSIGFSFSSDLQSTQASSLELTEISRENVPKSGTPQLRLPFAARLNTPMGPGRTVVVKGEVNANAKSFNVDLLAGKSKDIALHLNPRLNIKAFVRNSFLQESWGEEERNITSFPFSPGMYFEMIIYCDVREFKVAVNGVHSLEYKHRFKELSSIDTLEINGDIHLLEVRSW
# [4] = Binding affinity to human galectin-1 C3S mutant by fluorescence polarization analysis
# [5] = tested on: TXL2; assay: Induction of cell death in human TXL2 patient-derived BCP-ALL cells assessed as reduction in viable cells at 0.5 to 800 uM incubated for 24 hrs by Alamar blue assay; format: functional, cell-based; conditions: dose 0.5-800 µM, DDE = dose-dependent effect
# [6] = tested on: US7; assay: Induction of cell death in human US7 patient-derived BCP-ALL cells assessed as reduction in viable cells at 0.5 to 800 uM incubated for 24 hrs by Alamar blue assay; format: functional, cell-based; conditions: dose 0.5-800 µM, DDE = dose-dependent effect
# [7] = Cytotoxicity against human US7 patient-derived BCP-ALL cells co-cultured with irradiated OP9 stromal cells assessed as reduction in cell viability incubated for 24 hrs by Alamar blue assay; format: functional, cell-based; conditions: US7, light or radiation study
# [8] = tested on: LAX40; assay: Cytotoxicity against human LAX40 patient-derived BCP-ALL cells co-cultured with irradiated OP9 stromal cells assessed as reduction in cell viability at 100 uM for 1 to 3 days by trypan blue staining based assay; format: functional; conditions: time 1-3 day, TDE = time-dependent effect
# [9] = tested on: LAX40; assay: Cytostatic activity against human LAX40 patient-derived BCP-ALL cells co-cultured with irradiated OP9 stromal cells assessed as reduction in cell viability at 100 uM for 1 to 3 days by trypan blue staining based assay; format: functional; conditions: time 1-3 day, TDE = time-dependent effect
# [10] = Cytotoxicity against mouse bone marrow-derived stromal OP9 cells assessed as live cells at 100 uM measured after 3 days by trypan blue staining based assay relative to control; format: toxicity, cell-based; conditions: time 3 day, read-out: Activity
# [11] = molecular target: Galectin-1 (Homo sapiens, UniProt P09382); assay: Binding affinity to human galectin-1 using 3,3'-dideoxy-3-[4-(fluorescein-5-yl-carbonylaminomethyl)-1H-1,2,3-triazol-1-y1]-3'.(3,5-dimethoxy-benzamido)-1,1'-sulfanediyl-di-beta-D-galactopyranoside as fluorescent probe by fluorescence polarization analysis
# Sequence of Galectin-1 (P09382 whole entry): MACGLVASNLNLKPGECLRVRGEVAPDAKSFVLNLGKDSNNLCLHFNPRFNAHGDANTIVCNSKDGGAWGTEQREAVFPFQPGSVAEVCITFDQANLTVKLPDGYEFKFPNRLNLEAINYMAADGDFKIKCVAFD
# [12] = molecular target: T3, Galectin-8 (Homo sapiens, UniProt O00214); assay: Binding affinity to human galectin-8C expressed in Escherichia coli BL21(DE3) using 3,3'-dideoxy-3-[4-(fluorescein-5-yl-carbonylaminomethyl)-1H-1,2,3-triazol-1-y1]-3'-(3,5-dimethoxy-benzamido)-1,1'-sulfanediyl-di-beta-D-galactopyranoside as fluorescent probe by fluorescence polarization analysis
# T3 sequence (O00214 whole entry): T2 sequence (whole entry)
# [13] = molecular target: Galectin-3 (Homo sapiens, UniProt P17931)
# Sequence of Galectin-3 (P17931 whole entry): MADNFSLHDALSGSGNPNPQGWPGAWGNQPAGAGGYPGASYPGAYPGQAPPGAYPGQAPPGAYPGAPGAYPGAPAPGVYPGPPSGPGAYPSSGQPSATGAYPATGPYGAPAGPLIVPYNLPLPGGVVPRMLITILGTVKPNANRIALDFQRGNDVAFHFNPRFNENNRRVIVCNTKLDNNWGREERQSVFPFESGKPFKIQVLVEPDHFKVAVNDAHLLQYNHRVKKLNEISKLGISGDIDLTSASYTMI
# Description: Binding affinity to human galectin-3 using 2-(fluorescein-5/6-yl-carbonylamino)-ethyl 2-acetamido-2-deoxy-alpha-D-galactopyranosyl-(1-3)-[alpha-L-fucopyranosyl-(1-2)]-beta-D-galactopyranosyl-(1-4)-beta-D-glucopyranoside by fluorescence polarization analysis
# [14] = molecular target: T3, Galectin-8; assay: Binding affinity to human galectin-8N using 3,3'-dideoxy-3-[4-(fluorescein-5-yl-carbonylaminomethyl)-1H-1,2,3-triazol-1-y1]-3'.(3,5-dimethoxy-benzamido)-1,1'-sulfanediyl-di-beta-D-galactopyranoside as fluorescent probe by fluorescence polarization analysis
# [15] = molecular target: T4, Galectin-4 (Homo sapiens) (UniProt P56470); assay: Antagonist activity against human galectin-4N expressed in Escherichia coli BL21 assessed as inhibition of galectin-4N at 2 mM using 3,3'-dideoxy-3-[4-(fluorescein-5-yl-carbonylaminomethyl)-1H-1,2,3-triazol-1-y1]-3'-(3,5-dimethoxy-benzamido)-1,1'-sulfanediyl-di-beta-D-galactopyranoside as fluorescent probe by fluorescence polarization analysis relative to control
# T4 sequence (whole entry): T1 sequence (P56470 whole entry)
SMILES,Kd [1] [µM],Kd [2] [µM],inhibition [3] [%],Kd [4] [mM],Kd [11] [mM],Kd [12] [mM],Kd [13] [µM],Kd [14] [mM],inhibition [15] [%],Activity [5],Activity [6],IC50 [7] [µM],Activity [8],Activity [9],"viability at 72 h, 100 µM [10] [%]"
CO[C@@H]1O[C@H](CO)[C@H](O)[C@H](OC(=O)c2ccc(C)cc2)[C@@H]1OC(=O)c1ccccc1[N+](=O)[O-],440,48,< 20,1.8,,,,,,Dde,Dde,307,Tde,Tde,≥ 65
CO[C@@H]1O[C@H](CO)[C@H](O)[C@H](OC(=O)c2ccc(C)cc2)[C@@H]1OC(=O)c1cccc([N+](=O)[O-])c1,1400,630,< 20,,2.7,4,130,,,,,138,,,
CO[C@@H]1O[C@H](CO)[C@H](O)[C@H](OC(=O)c2ccc(C)cc2)[C@@H]1OC(=O)c1ccc(C(F)(F)F)cc1[N+](=O)[O-],1400,40,< 20,,4,1.9,,,,,,83,Tde,Tde,
CO[C@@H]1O[C@H](CO)[C@H](O)[C@H](OC(=O)c2ccc(C)cc2)[C@@H]1OC(C)=O,,2900,< 20,,4.1,,420,,< 20,,,,,,

# Now those with a lower Kd [2], led by results:
Kd [1] [µM],Kd [2] [µM],inhibition [3] [%],Kd [4] [mM],Kd [11] [mM],Kd [12] [mM],Kd [13] [µM],Kd [14] [mM],inhibition [15] [%],SMILES,Activity [5],Activity [6],IC50 [7] [µM],Activity [8],Activity [9],"viability at 72 h, 100 µM [10] [%]"
250,18,,,1.4,0.45,,4,,CO[C@@H]1O[C@H](CO)[C@H](O)[C@H](OC(=O)c2ccc(C)cc2)[C@@H]1OC(=O)c1ccc(Cl)cc1[N+](=O)[O-],,,128,,,
710,6.5,< 20,,2.1,0.9,,,,CO[C@@H]1O[C@H](CO)[C@H](O)[C@H](OC(=O)c2ccc(C)cc2)[C@@H]1OC(=O)c1ccc(F)cc1[N+](=O)[O-],,,150,,,
